The values that follow come from publication PMC4643019, “Imaging Sites of Inhibition of Proteolysis in Pathomimetic Human Breast Cancer Cultures by Light-Activated Ruthenium Compound” (PLoS ONE, 2015).

In general, IC50 refers to the concentration needed to halve the response being measured.

Read-outs that look alike come from different tables or passages of the source.

The test system of series [1] is MDA-MB-231 3D MAME cultures. Put plainly: Live-cell proteolysis assay (DQ-collagen IV) in 3D MAME cultures, MDA-MB-231. In kind it is cell-based, human. The method, then:
(§1) Proteolytic cleavage of DQ-collagen IV substrate (Invitrogen, Carlsbad, CA, USA) by live TNBC cells was imaged in real time and quantified as previously described. Briefly, glass coverslips were coated with 50 μl of 16.4 mg/ml Cultrex^TM containing 25 μg/ml DQ-collagen IV and incubated for 15 min at 37°C to solidify. TNBC cells (1.0 x 10^4) were seeded onto coated glass coverslips and incubated for 60 min. Medium containing 2% Cultrex^TM was added to the cells. The sample was added every 48 h. […] Where indicated, assays were performed in the presence of CA074 and CA074Me (5 μM each) (Peptides International, Louisville, KY, USA), compound 1 or compound 2. For experiments with the caged inhibitor, cells were exposed to dark (no irradiation) and light (irradiation at 250 W, 395–750 nm) conditions for 45 min with a tungsten halogen lamp and H2O filter on separate plates. After 4 days of culture, optical sections through the entire depth of the 3D structures were acquired on a confocal microscope and, reconstructed in 3D using Volocity software. At the time of imaging cells were stained with CellTracker Orange and nuclei with Hoechst 33342. Volocity software was used to determine cellular boundaries in each confocal slice and generate a “cytoplasmic mask” as well as to count nuclei. The intensity of DQ-collagen IV degradation fragments per cell was quantified in the entire 3D volume. Degradation fragments were segmented into those present inside or surrounding the cells by using image arithmetic as we have previously described in detail.

Series [2] addresses T1, CTSB purified from human liver (Homo sapiens, UniProt P07858).
T1 construct: CTSB purified from human liver was purchased from Athens Research & Technology; purchased Athens Research & Technology (Athens, GA, USA); host or cells: human liver (tissue-purified)
Put plainly: Cathepsin B activity assay with purified enzyme (Z-Arg-Arg-AMC). In kind it is biochemical. As to conditions: for IC50: CTSB 10 nM, substrate 150 μM. How it is done: CTSB purified from human liver was purchased from Athens Research & Technology (Athens, GA, USA). The enzyme activity was determined from kinetic measurements performed by fluorimetric detection of the hydrolysis product AMC at 37°C for 30 min at one-minute intervals using a Tecan SpectraFluor Plus plate-reader. The excitation and emission wavelengths were 360 and 485 nm, respectively. The fluorescent substrate Z-Arg-Arg-AMC (Bachem, Torrance, CA, USA) was used at a final concentration of 150 μM.
The enzyme was activated for 15 minutes with activator buffer (100 μl) containing 5 mM EDTA, 10 mM DTT (pH 5.2) at 37°C. The sample (1 μl) was added and the reaction mixtures were conducted during 45 min under dark (no irradiation) and light (irradiation at 250 W, 395–750 nm) conditions with a tungsten halogen lamp and H2O filter on separate plates. For the experiments under dark conditions, room lights were off and in addition the plate was covered with aluminum foil (light protection); the other plate was exposed to visible light for the same time period. The irradiation wavelength was selected by placing a 395 long-pass filter between the lamp and the sample, along with a 10 cm water cell to absorb infrared light. After photolysis, the reaction was initiated by addition of 200 μl of assay buffer (0.6 mM CaCl2, 0.6 mM MgCl2, 25 mM piperazin-N-N‘-bis[2-ethanosulfonic acid] (disodium salt)), pH 7.3 containing 150 μM Z-Arg-Arg-AMC substrate solution. Enzyme concentration was 10 nM. The experiments were carried out in triplicate in 96-well flat bottom black plates at pH 6.0. Enzyme activities are expressed as a percentage, with 100% equal to activity in the absence of inhibitor. IC50 values were determined by plotting percent activity vs. log (inhibitor concentration).

For series [3], the system named is Hs578T 3D MAME cultures. Put plainly: Cell viability (Live/Dead) assay, Hs578T 3D MAME cultures. It is filed as cell-based. Conditions: in the dark or the light, 4 days. The method, then:
Three-dimensional cultures of TNBC cells were established, grown and treated with compound 2 as described above. After 4 days, a cell viability assay was performed to assess the cytotoxic effects of compound 2. The assay has two components: Calcein AM that fluoresces green when cleaved by intracellular esterases thereby labeling live cells and Ethidium Homodimer-1 that fluoresces red when incorporated in the DNA of dead cells. A solution of 4 μM Ethidium Homodimer-1 and 2 μM Calcein AM was prepared in sterile PBS. Cultures were incubated for 30 minutes at 37°C, washed once with warm PBS and replenished with warm MEGM media for live cell imaging. The samples were then imaged at 10X magnification using a Zeiss 510 META confocal microscope. Tiled 16-panel images and z-stacks through the depth of structures were captured. The images were processed to show top views using Volocity software.

Series [4] relates to Hs578T 3D MAME cultures. In words: Live-cell proteolysis assay (DQ-collagen IV) in 3D MAME cultures, Hs578T. It is filed as cell-based, human. How it is done:
as §1

Take `Cc1cccc(CC(NC(=O)c2ccc(Cl)c(Cl)c2)C(=O)NCC#N)c1.Cc1cccc(CC(NC(=O)c2ccc(Cl)c(Cl)c2)C(=O)NCC#N)c1.F[B-](F)(F)F.F[B-](F)(F)F.[Ru+2].c1ccc(-c2ccccn2)nc1.c1ccc(-c2ccccn2)nc1` (mixture of isomers) [compound 2, Δ- and Λ-cis [Ru(bpy)2(1)2](BF4)2]: the “degradation of DQ-collagen IV” value in series [1] (MDA-MB-231, 1 μM, exposed to visible light, 4 days) is “significantly reduced”; in the series on Hs578T 3D MAME cultures [4] (1 μM, exposed to visible light, 4 days), “significantly reduced”. Besides, the “inhibition of proteolysis in the dark” value in series [1] (MDA-MB-231, higher concentrations than 1 μM, dark (data not shown)) is “significant inhibition of proteolysis”; in the series on Hs578T 3D MAME cultures [4] (higher concentrations than 1 μM, dark (data not shown)), “significant inhibition of proteolysis”. Also, the IC50 was determined as 3400 nM in series [2] (dark (no irradiation) 45 min, read-out: IC50 (dark)) and 280 nM in series [2] (light λirr = 395–750 nm, 45 min, 250 W, read-out: IC50 (light)). Also, in series [2] (purified CTSB), the “dark/light IC50 ratio” value was found to be 12. Also, in the series on Hs578T 3D MAME cultures [3], the “toxicity by cell viability assay” value is given as “did not observe any toxicity”.
